Key:
[1] = xn = mol fraction of the nth substance listed

CN1CCOCC1 [N-methylmorpholine]
Details	surface tension liquid-gas [mN/m]
298.15 K	28.22
308.15 K	27.2
318.15 K	26.18
328.15 K	25.15

CN1CCOCC1 [N-methylmorpholine] + O
surface tension liquid-gas [mN/m], [1]
Details	298.15 K	308.15 K	318.15 K	328.15 K
x1 = 0.0082	69.64	67.64	65.75	63.98
x1 = 0.0256	54.94	53.18	51.42	49.66
x1 = 0.0481	50.58	48.64	46.7	44.76
x1 = 0.0539	49.42	47.71	46	44.3
x1 = 0.0747	46.86	45.35	43.83	42.32
x1 = 0.0992	44.62	43.24	41.87	40.49
x1 = 0.1962	38.66	37.36	36.05	34.75
x1 = 0.2972	34.9	33.66	32.43	31.19
x1 = 0.395	32.72	31.54	30.35	29.16
x1 = 0.4993	31.33	30.17	29.02	27.86
x1 = 0.5952	30.56	29.47	28.37	27.28
x1 = 0.6979	29.81	28.73	27.65	26.57
x1 = 0.8028	29.24	28.14	27.03	25.93
x1 = 0.8925	28.81	27.69	26.57	25.45
x1 = 1	28.22	27.2	26.18	25.15

C1COCCN1 [tetrahydro-1,4-oxazine]
Details	surface tension liquid-gas [mN/m]
298.15 K	37.68
308.15 K	36.46
318.15 K	35.24
328.15 K	34.02

C1COCCN1 [tetrahydro-1,4-oxazine] + O
surface tension liquid-gas [mN/m], [1]
Details	298.15 K	308.15 K	318.15 K	328.15 K
x1 = 0.0125	68.36	66.65	64.55	62.68
x1 = 0.0155	67.66	65.85	66.74	61.8
x1 = 0.0251	65.41	63.27	61.14	59
x1 = 0.0496	62.08	60.05	58.03	56
x1 = 0.06	60.89	58.94	56.98	55.03
x1 = 0.0735	59.6	57.66	55.72	53.78
x1 = 0.0793	59.43	57.69	55.63	53.65
x1 = 0.0854	58.94	56.56	54.18	51.8
x1 = 0.0991	57.71	55.42	53.12	50.83
x1 = 0.2005	51.23	49.14	47.05	44.96
x1 = 0.2973	47.24	45.52	43.8	42.09
x1 = 0.3969	44.64	43.2	41.75	40.31
x1 = 0.4996	43.06	41.7	40.33	38.97
x1 = 0.5977	41.55	40.25	38.96	37.66
x1 = 0.7005	40.33	39.12	37.91	36.7
x1 = 0.8034	39.3	38.1	36.9	35.69
x1 = 0.9096	38.38	37.16	35.95	34.73
x1 = 1	37.68	36.46	35.24	34.02

O [water] + C1COCCN1
[1], x2 = 0
Details	surface tension liquid-gas [mN/m]
298.15 K	72.01
308.15 K	70.41
318.15 K	68.79
328.15 K	67.17

O [water] + CN1CCOCC1
[1], x2 = 0
Details	surface tension liquid-gas [mN/m]
298.15 K	72.01
308.15 K	70.41
318.15 K	68.79
328.15 K	67.17

— the NIST ThermoML archive (doi:10.1021/je0340250)
